# Source: US6872748B2 (priority 2001, dated 2005)
# Read-outs that look alike come from different tables or passages of the source.
# Legend:
# VR1 [1] = molecular target: T1, VR1 (Rattus norvegicus, UniProt O35433); experiment: biochemical; format: binding
# T1 construct: expressed in transfected cells; host or cells: Chinese Hamster Ovary cells (CHO, ATCC CCL-61), Tet-off inducible expression
# Male ICR mice = experiment: animal or person; format: in vivo; conditions: for ED50: Mus musculus, ip, read-out: Writhing Test (ED50 = μG/KG); for Relative effect (fold stronger than capsaicin): mouse, in vivo
# Male Sprague-Dawley rat = conditions: in vivo
# VR1 [2] = molecular target: T1, VR1; experiment: cell-based
# [3] = read-out: Binding Affinity (Ki = nM)
# T1 sequence (O35433 whole entry): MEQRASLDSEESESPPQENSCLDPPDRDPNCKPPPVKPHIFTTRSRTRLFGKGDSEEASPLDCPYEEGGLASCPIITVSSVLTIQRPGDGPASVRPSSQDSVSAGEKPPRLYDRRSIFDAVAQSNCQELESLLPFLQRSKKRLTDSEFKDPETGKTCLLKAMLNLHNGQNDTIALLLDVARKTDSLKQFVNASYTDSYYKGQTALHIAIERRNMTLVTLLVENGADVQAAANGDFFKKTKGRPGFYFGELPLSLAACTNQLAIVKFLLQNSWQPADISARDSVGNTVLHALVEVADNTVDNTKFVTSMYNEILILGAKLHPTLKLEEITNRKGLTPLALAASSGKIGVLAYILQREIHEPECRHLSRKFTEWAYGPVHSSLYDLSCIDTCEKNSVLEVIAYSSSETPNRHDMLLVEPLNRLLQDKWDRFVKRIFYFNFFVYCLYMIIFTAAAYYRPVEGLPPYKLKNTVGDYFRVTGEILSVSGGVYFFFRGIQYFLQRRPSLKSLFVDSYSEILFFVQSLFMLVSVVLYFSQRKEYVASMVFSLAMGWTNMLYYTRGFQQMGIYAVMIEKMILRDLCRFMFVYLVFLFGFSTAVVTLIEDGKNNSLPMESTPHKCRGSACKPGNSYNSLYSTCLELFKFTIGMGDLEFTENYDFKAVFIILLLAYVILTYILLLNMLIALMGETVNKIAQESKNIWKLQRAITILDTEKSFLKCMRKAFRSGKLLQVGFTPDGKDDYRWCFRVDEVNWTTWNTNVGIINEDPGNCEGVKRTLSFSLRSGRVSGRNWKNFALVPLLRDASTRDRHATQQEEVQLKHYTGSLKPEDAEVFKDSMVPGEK
Compound,Ki (VR1 [1]),ED50 (Male ICR mice),MPP (moderate pain-producing potency) (Male Sprague-Dawley rat),RPP (relative pain-producing potency) (Male Sprague-Dawley rat),Relative effect (fold stronger than capsaicin) (Male ICR mice),further results
"COc1cc(CC(=O)NCC(CCc2ccc(C(C)(C)C)cc2)COC(=O)C(C)(C)C)ccc1O (stereo not shown) [Compound 35, N-[4-(4-tert-Butylphenyl)-2-(pivaloyloxymethyl)butyl]-2-[4-hydroxy-3-methoxyphenyl]acetamide]",36.3 nM,,,,,
"COc1cc(CNC(=S)NC(COC(=O)C(C)(C)C)Cc2ccc(C(C)(C)C)cc2)ccc1OCCN (stereo not shown) [Compound 75, N-[3-(4-tert-Butylphenyl)-1-pivaloyloxy-2-propyl]-N′-[4-(2-aminoethoxy)-3-methoxybenzyl]thiourea]",341 nM,0.00061 µg/kg,47 µg/mL,~3.4,,
"COc1cc(COC(=S)NCC(COC(=O)C(C)(C)C)Cc2ccc(C)c(C)c2)ccc1O (stereo not shown) [Compound 140, N-[2-(3,4-Dimethylbenzyl)-3-(pivaloyloxy)propyl]-O-(4-hydroxy-3-methoxybenzyl)thiocarbamate]",156 nM,,,,,EC50 (VR1 [2]): 2.4 nM
"COc1cc(CNC(=S)NCC(COC(=O)C(C)(C)C)Cc2ccc(C)c(C)c2)ccc1O (stereo not shown) [JYL-79, reference compound]",,0.161 µg/kg,1.7 µg/mL,94,8,Ki (VR1 [1]; [3]): 17.4 nM
"COc1cc(CC(=O)NCC(CCc2ccc(C)c(C)c2)COC(=O)C(C)(C)C)ccc1O (stereo not shown) [Compound 34, N-[4-(3,4-Dimethylphenyl)-2-(pivaloyloxymethyl)butyl]-2-[4-hydroxy-3-methoxyphenyl]acetamide]",153 nM,0.934 µg/kg,,,1.4,EC50 (VR1 [2]): 0.784 nM; fold stronger effect than JYL-273 (45Ca influx EC50) (VR1 [2]): 4 fold; fold stronger effect than LJO-198 (45Ca influx EC50) (VR1 [2]): 16 fold; fold stronger effect than capsaicin (45Ca influx EC50) (VR1 [2]): 57 fold
"COc1cc(CNC(=S)NC(COC(=O)C(C)(C)C)Cc2ccc(C(C)(C)C)cc2)ccc1O (stereo not shown) [Compound 63, N-[3-(4-tert-Butylphenyl)-1-pivaloyloxy-2-propyl]-N′-[4-hydroxy-3-methoxybenzyl]thiourea]",34.6 nM,0.00036 µg/kg,,,,
"COc1cc(CNC(=S)OCC(COC(=O)C(C)(C)C)Cc2ccc(C)c(C)c2)ccc1O (stereo not shown) [Compound 125, N-(4-hydroxy-3-methoxybenzyl)-O-[2-(3,4-Dimethylbenzyl)-3-(pivaloyloxy)propyl]thiocarbamate]",143 nM,,,,,
"COc1cc(CC(=O)NCC(COC(=O)C(C)(C)C)Cc2ccc(C)c(C)c2)ccc1OCCN (stereo not shown) [MSK-195, reference compound]",603 nM,1.17 µg/kg,14.9 µg/mL,11,1.1,
"COc1cc(COC(=S)NCc2ccc(C(C)(C)C)cc2)ccc1O [Compound 147, N-(4-tert-Butylbenzyl)-O-(4-hydroxy-3-methoxybenzyl)thiocarbamate]",1940 nM,,,,,
"COc1cc(CNC(=O)CCCC/C=C/C(C)C)ccc1O [Capsaicin, 8-methyl-N-vanillyl-6-nonenamides, reference compound]",,1.34 µg/kg,,,,
"COc1cc(CNC(=S)NC(COC(=O)C(C)(C)C)Cc2ccc(C)c(C)c2)ccc1O (stereo not shown) [Compound 62, N-[3-(3,4-Dimethylphenyl)-1-pivaloyloxy-2-propyl]-N′-[4-hydroxy-3-methoxybenzyl]thiourea]",45.3 nM,0.006 µg/kg,11.57 µg/mL,14,224,
"COc1cc(CNC(=S)NC(CCc2ccc(C)c(C)c2)COC(=O)C(C)(C)C)ccc1O (stereo not shown) [Compound 64, N-[4-(3,4-Dimethylphenyl)-1-pivaloyloxy-2-butyl]-N′-[4-hydroxy-3-methoxybenzyl]thiourea]",244 nM,,,,,
"COc1cc(CC(=O)NCC(COC(=O)C(C)(C)C)Cc2ccc(C)c(C)c2)ccc1O (stereo not shown) [LJO-198, reference compound]",157 nM,0.0235 µg/kg,,,57,
"COc1cc(CNC(=S)OCc2ccc(C(C)(C)C)cc2)ccc1O [Compound 132, O-(4-tert-Butylbenzyl)-N-(4-hydroxy-3-methoxybenzyl) thiocarbamate]",1960 nM,,,,,
"COc1cc(CNC(=S)NCC(CCc2ccc(C)c(C)c2)COC(=O)C(C)(C)C)ccc1O (stereo not shown) [Compound 28, N-[4-(3,4-Dimethylphenyl)-2-(pivaloyloxymethyl)butyl]-N′-[4-hydroxy-3-methoxybenzyl]thiourea]",24.9 nM,,,,,
"COc1cc(CNC(=S)NC(COC(=O)C(C)(C)C)Cc2ccc(C)c(C)c2)ccc1OCCN (stereo not shown) [Compound 74, N-[3-(3,4-Dimethylphenyl)-1-pivaloyloxy-2-propyl]-N′-[4-(2-aminoethoxy)-3-methoxybenzyl]thiourea]",,3e-05 µg/kg,18.02 µg/mL,,,
"COc1cc(CNC(=S)NCC(COC(=O)C(C)(C)C)Cc2ccc(C(C)(C)C)cc2)ccc1O (stereo not shown) [JYL-273, reference compound]",,0.107 µg/kg,23 µg/mL,7,,Ki (VR1 [1]; [3]): 6.35 nM
"COc1cc(CC(=O)NCC(CCc2ccc(C)c(C)c2)COC(=O)C(C)(C)C)ccc1OCCN (stereo not shown) [Compound 38, N-[4-(3,4-Dimethylphenyl)-2-(pivaloyloxymethyl)butyl]-2-[4-(2-aminoethoxy)-3-methoxyphenyl]acetamide]",855 nM,0.076 µg/kg,29 µg/mL,~5.5,18,
"COc1cc(CNC(=S)NCC(CCc2ccc(C(C)(C)C)cc2)COC(=O)C(C)(C)C)ccc1O (stereo not shown) [Compound 29, N-[4-tert-Butylphenyl-2-(pivaloyloxymethyl)butyl]-N′-[4-hydroxy-3-methoxybenzyl]thiourea]",18.3 nM,,,,,
